Measured values as given in PubChem BioAssay AID248 (DTP/NCI, 2004).
Inconclusive results and toxic doses are left out. Cut-off read from the data, not from the text of the source: active = T/C of 150% or more; inactive = T/C below 125%.

System: L1210 leukemia ip in BDF1 mice, survival T/C
Test: NCI In Vivo Anticancer Drug Screen. Data for tumor model L1210 Leukemia (intraperitoneal) in B6D2F1 (BDF1) mice
Conditions: endpoint: mean survival time, higher = longer survival
Procedure, shortened: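 In this screen, tumor-bearing mice given compound are compared to those given vehicle, and their survival values are reported as a treated-to-control quotient.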

[1] = dose: 100.0 mg/kg/injection, schedule: Q01DX001 (ip), vehicle: saline
[2] = dose: 200.0 mg/kg/injection, schedule: Q01DX001 (ip), vehicle: saline
[3] = dose: 400.0 mg/kg/injection, schedule: Q01DX001 (ip), vehicle: saline
[4] = dose: 100.0 mg/kg/injection, schedule: Q04DX003 (ip), vehicle: Klucel (hydroxypropylcellulose) (HPC)
[5] = dose: 200.0 mg/kg/injection, schedule: Q04DX003 (ip), vehicle: Klucel (hydroxypropylcellulose) (HPC)
[6] = dose: 400.0 mg/kg/injection, schedule: Q04DX003 (ip), vehicle: Klucel (hydroxypropylcellulose) (HPC)
[7] = dose: 100.0 mg/kg/injection, schedule: Q01DX009 (ip), vehicle: saline with Tween-80
[8] = dose: 200.0 mg/kg/injection, schedule: Q01DX009 (ip), vehicle: saline with Tween-80
[9] = dose: 400.0 mg/kg/injection, schedule: Q01DX009 (ip), vehicle: saline with Tween-80
[10] = dose: 100.0 mg/kg/injection, schedule: Q04DX003 (ip), vehicle: saline with Tween-80
[11] = dose: 200.0 mg/kg/injection, schedule: Q04DX003 (ip), vehicle: saline with Tween-80
[12] = dose: 25.0 mg/kg/injection, schedule: Q01DX009 (ip), vehicle: Klucel (hydroxypropylcellulose) (HPC)
[13] = dose: 50.0 mg/kg/injection, schedule: Q01DX009 (ip), vehicle: Klucel (hydroxypropylcellulose) (HPC)
[14] = dose: 100.0 mg/kg/injection, schedule: Q01DX009 (ip), vehicle: Klucel (hydroxypropylcellulose) (HPC)

Measured: T/C

CCOC(=N)CCNS(=O)(=O)c1ccc(C)cc1
inactive: [1] 104 % of control | [2] 98 % of control | [3] 115 % of control

CC1CP(=O)(Cc2ccccc2)C(c2ccccc2)=C1O (stereo unspecified)
inactive: [4] 90 % of control | [5] 93 % of control | [6] 96 % of control

NC(=S)N/N=C/c1ccccc1N
inactive: [7] 102 % of control | [8] 96 % of control | [9] 96 % of control

O=S(=O)(Nc1c(O)ccc2ccccc12)c1ccccc1
inactive: [7] 95 % of control | [8] 93 % of control | [9] 90 % of control

Cc1cc([N+](=O)[O-])ccc1P(=O)(O)O
inactive: [10] 100 % of control | [11] 108 % of control

COC(=O)CC(=O)/C(=C/C(C/C=C(\C(=O)CC(=O)OC)C(=O)OC)OC)C(=O)OC (stereo unspecified)
inactive: dose: 50.0 mg/kg/injection, schedule: Q01DX001 (ip), vehicle: carboxymethylcellulose (CMC) 103 % of control | dose: 100.0 mg/kg/injection, schedule: Q01DX001 (ip), vehicle: carboxymethylcellulose (CMC) 101 % of control | dose: 200.0 mg/kg/injection, schedule: Q01DX001 (ip), vehicle: carboxymethylcellulose (CMC) 101 % of control | dose: 400.0 mg/kg/injection, schedule: Q01DX001 (ip), vehicle: carboxymethylcellulose (CMC) 100 % of control

O=[N+]([O-])c1ccccc1C1ON1C1CCCCC1 (stereo unspecified)
inactive: [1] 97 % of control | [2] 97 % of control | [3] 90 % of control

O=S(=O)(Cl)C1c2ccccc2-c2ccccc21
inactive: dose: 100.0 mg/kg/injection, schedule: Q04DX002 (ip), vehicle: other 104 % of control | dose: 200.0 mg/kg/injection, schedule: Q04DX002 (ip), vehicle: other 96 % of control | dose: 400.0 mg/kg/injection, schedule: Q04DX002 (ip), vehicle: other 90 % of control

CC(=O)NC(C)C(N)=O (stereo unspecified)
inactive: dose: 100.0 mg/kg/injection, schedule: Q04DX002 (ip), vehicle: saline 108 % of control | dose: 200.0 mg/kg/injection, schedule: Q04DX002 (ip), vehicle: saline 105 % of control | dose: 400.0 mg/kg/injection, schedule: Q04DX002 (ip), vehicle: saline 96 % of control

COC1CC(N=[N+]=[N-])C(OC(=O)c2ccccc2)C(C)O1 (stereo unspecified)
inactive: [7] 110 % of control | [10] 96 % of control | [8] 102 % of control | [11] 100 % of control | [9] 98 % of control | dose: 400.0 mg/kg/injection, schedule: Q04DX003 (ip), vehicle: saline with Tween-80 102 % of control

c1cc[c]([Sn]([CH2]Cc2ccncc2)([c]2ccccc2)[c]2ccccc2)cc1
inactive: dose: 100.0 mg/kg/injection, schedule: Q04DX002 (sc), vehicle: olive oil, sesame oil, peanut oil 110 % of control | dose: 200.0 mg/kg/injection, schedule: Q04DX002 (sc), vehicle: olive oil, sesame oil, peanut oil 100 % of control | dose: 400.0 mg/kg/injection, schedule: Q04DX002 (sc), vehicle: olive oil, sesame oil, peanut oil 103 % of control

O=[N+]([O-])c1ccccc1CSc1ncnc2nc[nH]c12
inactive: dose: 132.0 mg/kg/injection, schedule: Q04DX003 (ip), vehicle: saline with Tween-80 102 % of control | [11] 100 % of control | dose: 300.0 mg/kg/injection, schedule: Q04DX003 (ip), vehicle: saline with Tween-80 105 % of control

CC(=O)Nc1nc(C=O)cc(=O)[nH]1
inactive: dose: 100.0 mg/kg/injection, schedule: Q01DX001 (ip), vehicle: Klucel (hydroxypropylcellulose) (HPC) 100 % of control | dose: 100.0 mg/kg/injection, schedule: Q01DX001 (ip), vehicle: other 86 % of control | dose: 200.0 mg/kg/injection, schedule: Q01DX001 (ip), vehicle: Klucel (hydroxypropylcellulose) (HPC) 104 % of control | dose: 400.0 mg/kg/injection, schedule: Q01DX001 (ip), vehicle: Klucel (hydroxypropylcellulose) (HPC) 103 % of control | dose: 400.0 mg/kg/injection, schedule: Q01DX001 (ip), vehicle: other 91 % of control

CC1=C(C#N)C2(CCN(C)CC2)C(C#N)=C(C)N1
inactive: dose: 75.0 mg/kg/injection, schedule: Q01DX001 (ip), vehicle: carboxymethylcellulose (CMC) 105 % of control | dose: 75.0 mg/kg/injection, schedule: Q01DX001 (ip), vehicle: saline 104 % of control | dose: 150.0 mg/kg/injection, schedule: Q01DX001 (ip), vehicle: carboxymethylcellulose (CMC) 109 % of control

CS(=O)(=O)N1C=CC=CC=C1
inactive: dose: 12.5 mg/kg/injection, schedule: Q01DX009 (ip), vehicle: Klucel (hydroxypropylcellulose) (HPC) 91 % of control | dose: 12.5 mg/kg/injection, schedule: Q04DX003 (ip), vehicle: Klucel (hydroxypropylcellulose) (HPC) 96 % of control | [12] 95 % of control | dose: 25.0 mg/kg/injection, schedule: Q04DX003 (ip), vehicle: Klucel (hydroxypropylcellulose) (HPC) 98 % of control | [13] 95 % of control | dose: 50.0 mg/kg/injection, schedule: Q04DX003 (ip), vehicle: Klucel (hydroxypropylcellulose) (HPC) 105 % of control

Cc1cn(-c2c(C)c(C)c(-n3c(C)ccc3C)c(C)c2C)cc1C
inactive: [14] 86 % of control | dose: 200.0 mg/kg/injection, schedule: Q01DX009 (ip), vehicle: Klucel (hydroxypropylcellulose) (HPC) 93 % of control | dose: 400.0 mg/kg/injection, schedule: Q01DX009 (ip), vehicle: Klucel (hydroxypropylcellulose) (HPC) 90 % of control

CC(=O)Nc1ccc2c3c(ccc([N+](=O)[O-])c13)CC2
inactive: dose: 100.0 mg/kg/injection, schedule: Q01DX009 (ip), vehicle: saline 90 % of control | dose: 100.0 mg/kg/injection, schedule: Q04DX003 (ip), vehicle: saline 108 % of control | dose: 200.0 mg/kg/injection, schedule: Q01DX009 (ip), vehicle: saline 93 % of control | dose: 200.0 mg/kg/injection, schedule: Q04DX003 (ip), vehicle: saline 110 % of control | dose: 400.0 mg/kg/injection, schedule: Q01DX009 (ip), vehicle: saline 108 % of control | dose: 400.0 mg/kg/injection, schedule: Q04DX003 (ip), vehicle: saline 110 % of control

O=C(CO)NCO
inactive: [1] 103 % of control | [2] 101 % of control | [3] 101 % of control

CC(C)(C)NC/C(=C\c1ccccc1)C(=O)c1ccccc1
inactive: dose: 5.0 mg/kg/injection, schedule: Q01DX001 (ip), vehicle: saline 98 % of control | dose: 10.0 mg/kg/injection, schedule: Q01DX001 (ip), vehicle: saline 101 % of control | dose: 20.0 mg/kg/injection, schedule: Q01DX001 (ip), vehicle: saline 98 % of control | [12] 100 % of control | dose: 40.0 mg/kg/injection, schedule: Q01DX001 (ip), vehicle: saline 93 % of control | [13] 98 % of control | dose: 80.0 mg/kg/injection, schedule: Q01DX001 (ip), vehicle: saline 95 % of control | [14] 95 % of control | [4] 94 % of control | [10] 112 % of control | [5] 91 % of control | [6] 96 % of control

CC(C)C(=O)[O][Sn]([c]1ccccc1)([c]1ccccc1)[c]1ccccc1
inactive: dose: 12.5 mg/kg/injection, schedule: Q04DX002 (ip), vehicle: Klucel (hydroxypropylcellulose) (HPC) 97 % of control | dose: 25.0 mg/kg/injection, schedule: Q04DX002 (ip), vehicle: Klucel (hydroxypropylcellulose) (HPC) 93 % of control | dose: 50.0 mg/kg/injection, schedule: Q04DX002 (ip), vehicle: Klucel (hydroxypropylcellulose) (HPC) 93 % of control

C(CC1CCNCC1)CC1CCNCC1 (tested in a mixture with another compound)
inactive: [1] 94 % of control

O=[N+]([O-])c1cc(S(=O)(=O)F)ccc1O
inactive: dose: 5.0 mg/kg/injection, schedule: Q01DX001 (ip), vehicle: other 112 % of control | dose: 10.0 mg/kg/injection, schedule: Q01DX001 (ip), vehicle: other 97 % of control | dose: 20.0 mg/kg/injection, schedule: Q01DX001 (ip), vehicle: other 95 % of control | dose: 40.0 mg/kg/injection, schedule: Q01DX001 (ip), vehicle: other 101 % of control | dose: 80.0 mg/kg/injection, schedule: Q01DX001 (ip), vehicle: other 106 % of control
